{
  "source": "patent US11730746B2",
  "about": "“17beta-heterocyclyl-digitalis like compounds for the treatment of heart failure” (priority 2018, dated 2023)",
  "key": {"SERCA2a": {"biological_target": "T1, SERCA2a (Canis lupus familiaris, UniProt O46674)", "T1 construct": "pre-incubated with 2 μg of microsomes; from tissue; host or cells: dog heart left ventricle, SR microsomes", "T1 sequence (O46674 whole entry)": "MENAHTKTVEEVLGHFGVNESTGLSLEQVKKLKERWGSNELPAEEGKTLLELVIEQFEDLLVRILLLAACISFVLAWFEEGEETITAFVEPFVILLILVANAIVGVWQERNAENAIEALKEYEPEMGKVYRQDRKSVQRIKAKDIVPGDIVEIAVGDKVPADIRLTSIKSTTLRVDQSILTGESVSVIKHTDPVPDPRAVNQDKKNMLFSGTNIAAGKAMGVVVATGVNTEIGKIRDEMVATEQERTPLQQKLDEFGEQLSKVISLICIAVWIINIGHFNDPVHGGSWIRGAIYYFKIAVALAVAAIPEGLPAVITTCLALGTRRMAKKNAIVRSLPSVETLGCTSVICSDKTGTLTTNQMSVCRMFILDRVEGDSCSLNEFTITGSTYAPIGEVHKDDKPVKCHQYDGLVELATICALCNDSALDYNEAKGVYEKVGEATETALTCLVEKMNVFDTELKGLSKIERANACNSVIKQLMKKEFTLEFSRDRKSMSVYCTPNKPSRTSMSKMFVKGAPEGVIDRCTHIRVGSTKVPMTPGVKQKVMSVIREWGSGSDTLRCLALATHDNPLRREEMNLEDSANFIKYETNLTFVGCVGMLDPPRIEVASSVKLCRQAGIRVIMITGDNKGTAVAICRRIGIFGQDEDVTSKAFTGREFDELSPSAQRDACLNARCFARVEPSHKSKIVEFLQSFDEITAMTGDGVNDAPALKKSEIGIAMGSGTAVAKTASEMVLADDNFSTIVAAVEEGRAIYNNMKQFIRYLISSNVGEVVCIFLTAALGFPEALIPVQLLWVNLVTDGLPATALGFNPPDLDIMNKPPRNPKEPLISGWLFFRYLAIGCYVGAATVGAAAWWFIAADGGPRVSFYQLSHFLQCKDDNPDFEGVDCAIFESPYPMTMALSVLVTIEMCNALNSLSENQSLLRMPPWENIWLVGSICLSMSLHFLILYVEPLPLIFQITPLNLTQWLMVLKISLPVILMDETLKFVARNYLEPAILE", "test": "SERCA2a ATPase activity in heart-derived SR microsomes from normal dog", "format": "biochemical", "settings": "for Vmax (SERCA2a ATPase activity): mean ± SD", "experimental": "Left ventricle tissues were dissected, homogenized in 4 volumes of 10 mM NaHCO3, pH 7, 1 mM PMSF, 10 μg/ml Aprotinin and Leupeptin and centrifuged at 12,000 g for 15 minutes, as published (Nediani C. et al. J Biol Chem. 1996; 271:19066-73). Supernatants were filtered and centrifuged at 100,000 g for 30 min. Contractile proteins were extracted by suspending the pellets with 0.6 M KCl, 30 mM Histidine, pH 7 and further centrifugation at 100,000 g for 30 min. Final pellets were reconstituted with 0.3 M Sucrose, 30 mM Histidine, pH 7.\nSERCA2a activity was measured “in vitro” as ^32P-ATP hydrolysis at different Ca^2+ concentrations (100-4000 nM) in the absence and presence of the tested compounds, as described (Micheletti R. et al. Am J Card 2007; 99:24A-32A). Increasing concentrations of each compound (from 1 to 100 nM) were pre-incubated with 2 μg of microsomes for 5 min at 4° C. in 80 μl of a solution containing 100 mM KCl, 5 mM MgCl2, 1 μM A23187, 20 mM Tris, pH 7.5. Then, 20 μl of 5 mM Tris-ATP containing 50 nCi of ^32P-ATP (3-10 Ci/mmol, Perkin Elmer) were added. The ATP hydrolysis was continued for 15 min at 37° C. and the reaction was stopped by acidification with 100 μl of 20% v/v ice-cold perchloric acid. ^32P was separated by centrifugation with activated charcoal (Norit A, SERVA) and the radioactivity was measured. SERCA2a-dependent activity was identified as the portion of total hydrolytic activity inhibited by 10 μM cyclopiazonic acid (Seidler N W. et al. J Biol Chem. 1989; 264:17816-23).\nDose-response curves were fitted by using a sigmoidal curve fitting software and the maximal velocity (Vmax) activity and the Kd Ca^2+ were calculated (Synergy Software KaleidaGraph 3.6)."}, "[1]": {"tested_on": "guinea pig isolated cardiomyocytes", "test": "Action potential measurements in isolated ventricular cardiomyocytes", "format": "cell-based", "settings": "100 nM", "from_the_text": "The compounds were characterized for their effect on (i) SR Ca^2+ uptake function, (ii) action potential (AP) in myocytes freshly dissociated from guinea-pig ventricles by retrograde coronary perfusion with enzymatic solution (Rocchetti M et al. J Pharmacol Exper Therap 2005; 313(1):207-215).\nThe action potential (AP) contour provides a first-line estimate of the integrated function of membrane ion channels and its changes may disclose ancillary actions, potentially resulting in untoward effects of the compound. To increase sensitivity of the AP contour as a reporter, effects on the rate-dependency of AP parameters were also tested, thus providing a multiparametric (more stringent) approach.\nAPs were recorded in normal Tyrode's solution at 36.5° C. The following parameters were measured at 4 stimulation rates (0.5-1-2-4 Hz): diastolic membrane potential (Edlast), maximum depolarization velocity (dV/dtmax), action potential duration (APD at 90%, 50% and 20% of repolarization), time constant (τ) of APD adaptation after a step change in stimulation rate. Short term APD variability (STV) during steady-state pacing, an index of repolarization stability, was measured as the sum of absolute ortogonal deviations from the identity line in the APDnfAPDn+1 plot (Poincare plot) (Altomare C et al, Circulation A&E 2015; 8:1265-1275)."}, "[2]": {"biological_target": "T2, CYP19 (CYP450, 19; aromatase) (Homo sapiens, UniProt P11511)", "T2 construct": "Eurofins 118040", "T2 sequence (P11511 whole entry)": "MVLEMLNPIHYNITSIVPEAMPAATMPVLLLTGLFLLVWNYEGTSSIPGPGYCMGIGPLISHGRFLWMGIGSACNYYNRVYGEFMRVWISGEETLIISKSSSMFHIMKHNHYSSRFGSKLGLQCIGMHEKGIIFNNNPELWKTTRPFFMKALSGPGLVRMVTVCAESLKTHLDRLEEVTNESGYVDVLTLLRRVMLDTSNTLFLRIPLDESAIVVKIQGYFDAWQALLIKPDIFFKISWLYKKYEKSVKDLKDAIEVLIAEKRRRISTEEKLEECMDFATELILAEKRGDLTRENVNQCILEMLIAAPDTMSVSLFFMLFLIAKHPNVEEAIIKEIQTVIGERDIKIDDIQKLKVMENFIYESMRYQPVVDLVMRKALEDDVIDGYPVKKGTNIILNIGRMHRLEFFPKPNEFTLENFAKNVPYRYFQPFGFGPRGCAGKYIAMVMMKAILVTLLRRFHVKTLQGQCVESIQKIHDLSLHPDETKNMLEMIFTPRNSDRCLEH", "test": "Eurofins panel 118040", "format": "biochemical", "settings": "crude membrane preparations", "experimental": "(§1) Radioligand binding to a panel of receptors was carried out by Eurofins on crude membrane preparations according to published procedures and by using appropriate reference standard (Eurofins, CVie 101 compound code PT #1207859, study #AB76416, quote #68407-1, for Cvie Therapeutics Limited, Taiwan (R.OC.) on Mar. 5, 2017). CVie 101 was tested at the concentration of 10 μM. No significant interaction was documented, except for Sodium Channel, site 2 from rat (cat #279510), where a significant response (≥50%) was noted (Table 7)."}, "[3]": {"biological_target": "T3, Peptidase, Angiotensin Converting Enzyme (Oryctolagus cuniculus, UniProt P12822)", "T3 construct": "Eurofins 107300", "T3 sequence (P12822 34-1310)": "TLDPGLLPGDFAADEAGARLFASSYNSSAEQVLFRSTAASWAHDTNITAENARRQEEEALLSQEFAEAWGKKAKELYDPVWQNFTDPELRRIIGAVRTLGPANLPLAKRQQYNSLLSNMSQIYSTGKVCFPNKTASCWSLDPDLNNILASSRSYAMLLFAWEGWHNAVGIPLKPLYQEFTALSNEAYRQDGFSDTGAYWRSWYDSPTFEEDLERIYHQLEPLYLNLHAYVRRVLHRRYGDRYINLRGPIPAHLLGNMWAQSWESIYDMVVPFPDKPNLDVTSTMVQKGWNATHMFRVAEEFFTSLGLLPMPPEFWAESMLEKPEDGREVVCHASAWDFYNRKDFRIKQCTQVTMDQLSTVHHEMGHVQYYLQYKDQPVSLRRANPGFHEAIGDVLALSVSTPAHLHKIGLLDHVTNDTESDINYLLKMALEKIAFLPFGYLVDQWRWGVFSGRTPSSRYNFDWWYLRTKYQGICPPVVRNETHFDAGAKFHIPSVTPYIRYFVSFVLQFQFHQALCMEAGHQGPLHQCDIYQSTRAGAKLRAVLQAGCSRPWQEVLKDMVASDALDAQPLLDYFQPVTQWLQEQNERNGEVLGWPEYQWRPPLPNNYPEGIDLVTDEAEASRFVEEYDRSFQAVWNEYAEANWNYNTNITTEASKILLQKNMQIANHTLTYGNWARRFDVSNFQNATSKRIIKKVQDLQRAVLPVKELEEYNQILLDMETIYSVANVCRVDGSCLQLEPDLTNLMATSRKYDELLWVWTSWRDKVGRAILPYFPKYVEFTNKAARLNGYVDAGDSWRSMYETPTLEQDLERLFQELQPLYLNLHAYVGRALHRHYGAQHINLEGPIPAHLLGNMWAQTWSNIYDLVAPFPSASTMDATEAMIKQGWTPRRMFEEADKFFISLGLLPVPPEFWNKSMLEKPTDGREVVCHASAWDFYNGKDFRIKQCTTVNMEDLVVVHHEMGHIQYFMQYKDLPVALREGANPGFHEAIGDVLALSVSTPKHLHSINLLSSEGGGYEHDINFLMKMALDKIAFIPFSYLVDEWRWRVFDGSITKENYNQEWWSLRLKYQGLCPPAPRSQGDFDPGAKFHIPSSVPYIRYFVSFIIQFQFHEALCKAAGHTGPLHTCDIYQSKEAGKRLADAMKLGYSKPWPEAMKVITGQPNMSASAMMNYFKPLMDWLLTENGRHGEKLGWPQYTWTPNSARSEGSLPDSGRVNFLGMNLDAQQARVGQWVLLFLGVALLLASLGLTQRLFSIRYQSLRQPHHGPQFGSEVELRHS", "test": "Eurofins panel 107300", "format": "biochemical, rabbit"}, "Phosphodiesterase PDE3": {"biological_target": "T4, Phosphodiesterase PDE3 (Homo sapiens, UniProt Q14432)", "T4 construct": "Eurofins 152000", "T4 sequence (Q14432 whole entry)": "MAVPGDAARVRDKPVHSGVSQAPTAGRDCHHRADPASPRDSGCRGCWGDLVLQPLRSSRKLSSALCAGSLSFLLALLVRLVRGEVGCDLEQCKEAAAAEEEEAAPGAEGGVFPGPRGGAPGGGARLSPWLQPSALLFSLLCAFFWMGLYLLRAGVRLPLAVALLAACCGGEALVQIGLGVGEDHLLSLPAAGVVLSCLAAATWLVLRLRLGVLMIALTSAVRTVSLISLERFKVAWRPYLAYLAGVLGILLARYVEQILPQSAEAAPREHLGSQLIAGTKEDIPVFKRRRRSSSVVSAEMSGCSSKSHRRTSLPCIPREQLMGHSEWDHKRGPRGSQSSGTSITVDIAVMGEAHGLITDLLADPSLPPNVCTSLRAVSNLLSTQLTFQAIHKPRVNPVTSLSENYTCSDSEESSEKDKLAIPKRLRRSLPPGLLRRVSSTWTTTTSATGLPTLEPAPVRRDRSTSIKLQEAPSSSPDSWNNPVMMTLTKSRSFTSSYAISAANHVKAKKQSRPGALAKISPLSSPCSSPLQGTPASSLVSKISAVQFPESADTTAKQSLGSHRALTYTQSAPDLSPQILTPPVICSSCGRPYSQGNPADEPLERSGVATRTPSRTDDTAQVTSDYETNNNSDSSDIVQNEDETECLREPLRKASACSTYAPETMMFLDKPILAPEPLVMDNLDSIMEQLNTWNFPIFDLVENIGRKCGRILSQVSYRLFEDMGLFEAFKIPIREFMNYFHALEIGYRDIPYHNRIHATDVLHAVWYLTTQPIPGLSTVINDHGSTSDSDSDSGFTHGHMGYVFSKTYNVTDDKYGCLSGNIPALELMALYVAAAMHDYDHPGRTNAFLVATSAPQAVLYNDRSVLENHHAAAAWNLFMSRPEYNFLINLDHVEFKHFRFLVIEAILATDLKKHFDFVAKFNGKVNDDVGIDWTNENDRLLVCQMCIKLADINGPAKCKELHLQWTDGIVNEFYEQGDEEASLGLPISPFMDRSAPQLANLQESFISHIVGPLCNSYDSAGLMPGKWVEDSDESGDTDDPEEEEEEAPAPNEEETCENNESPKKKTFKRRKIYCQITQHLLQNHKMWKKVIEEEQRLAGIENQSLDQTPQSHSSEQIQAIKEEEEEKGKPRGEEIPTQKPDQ", "test": "Eurofins panel 152000", "format": "biochemical", "experimental": "as §1"}, "Adenosine A2A": {"biological_target": "T5, Adenosine A2A (Homo sapiens, UniProt P29274)", "T5 construct": "Eurofins 200610; host or cells: crude membrane preparation", "test": "Receptor binding 200610", "experimental": "as §1"}, "Androgen (Testosterone)": {"tested_on": "Androgen (Testosterone)", "test": "Receptor binding 206000", "parameters": "species or system human", "settings": "10 μM", "experimental": "as §1"}, "Angiotensin AT2": {"biological_target": "T6, Angiotensin AT2 (Homo sapiens, UniProt P50052)", "T6 construct": "Eurofins 210120; host or cells: crude membrane preparation", "test": "Receptor binding 210120", "experimental": "as §1"}, "[4]": {"tested_on": "Calcium Channel L-type, Dihydropyridine", "test": "Receptor binding 214600", "parameters": "species or system rat", "settings": "10 μM", "experimental": "as §1"}, "Muscarinic M2": {"biological_target": "T7, Muscarinic M2 (Homo sapiens, UniProt P08172)", "T7 construct": "Eurofins (contract assay) 252710", "T7 sequence (P08172 whole entry)": "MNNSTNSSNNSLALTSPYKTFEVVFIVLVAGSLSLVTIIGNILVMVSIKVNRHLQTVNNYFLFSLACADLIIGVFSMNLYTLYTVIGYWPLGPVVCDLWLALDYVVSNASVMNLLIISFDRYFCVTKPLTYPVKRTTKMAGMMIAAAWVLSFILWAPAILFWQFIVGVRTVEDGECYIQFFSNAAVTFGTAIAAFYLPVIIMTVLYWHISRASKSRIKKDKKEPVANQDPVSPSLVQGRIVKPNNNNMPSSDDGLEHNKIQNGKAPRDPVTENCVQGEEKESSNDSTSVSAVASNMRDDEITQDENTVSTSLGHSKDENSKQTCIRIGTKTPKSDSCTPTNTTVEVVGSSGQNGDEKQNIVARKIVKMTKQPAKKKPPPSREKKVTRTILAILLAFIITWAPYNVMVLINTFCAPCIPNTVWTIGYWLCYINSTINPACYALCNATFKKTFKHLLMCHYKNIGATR", "test": "Receptor binding 252710", "experimental": "as §1"}, "Muscarinic M5": {"biological_target": "T8, Muscarinic M5 (Homo sapiens, UniProt P08912)", "T8 construct": "Eurofins (contract assay) 253010", "T8 sequence (P08912 whole entry)": "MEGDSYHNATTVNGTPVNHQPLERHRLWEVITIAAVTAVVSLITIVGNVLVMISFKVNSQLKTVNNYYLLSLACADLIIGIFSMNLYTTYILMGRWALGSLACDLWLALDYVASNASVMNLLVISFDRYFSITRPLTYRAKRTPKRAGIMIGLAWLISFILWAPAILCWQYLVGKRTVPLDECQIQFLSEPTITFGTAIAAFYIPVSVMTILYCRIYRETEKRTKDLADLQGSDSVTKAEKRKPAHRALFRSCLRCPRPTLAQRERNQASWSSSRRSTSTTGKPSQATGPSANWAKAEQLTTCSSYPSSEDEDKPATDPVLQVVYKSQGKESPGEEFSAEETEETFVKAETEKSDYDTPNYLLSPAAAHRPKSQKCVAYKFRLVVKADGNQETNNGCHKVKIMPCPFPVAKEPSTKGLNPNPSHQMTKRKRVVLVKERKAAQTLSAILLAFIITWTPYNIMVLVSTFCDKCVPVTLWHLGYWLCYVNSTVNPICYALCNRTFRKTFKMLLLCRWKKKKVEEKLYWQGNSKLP", "test": "Receptor binding 253010", "experimental": "as §1"}, "Nicotinic Acetylcholine": {"tested_on": "Nicotinic Acetylcholine", "test": "Receptor binding 258590", "parameters": "species or system human", "settings": "10 μM", "experimental": "as §1"}, "Potassium Channel (KATP)": {"biological_target": "T9, Potassium Channel (KATP) (Cricetus cricetus, UniProt Q09427)", "T9 construct": "Eurofins (contract assay) 265600", "test": "Receptor binding 265600", "parameters": "species or system hamster", "experimental": "as §1"}, "Progesterone PR-B": {"biological_target": "T10, Progesterone PR-B (Homo sapiens, UniProt P06401)", "T10 construct": "Eurofins (contract assay) 299005", "test": "Receptor binding 299005", "experimental": "as §1"}, "Ryanodine RyR3": {"biological_target": "T11, Ryanodine RyR3 (Rattus norvegicus, UniProt A0ABK0LPH6)", "T11 construct": "Eurofins (contract assay) 270300", "test": "Receptor binding 270300", "experimental": "as §1"}, "Sigma σ1": {"biological_target": "T12, Sigma σ1 (Homo sapiens, UniProt Q99720)", "T12 construct": "Eurofins (contract assay) 278110", "test": "Receptor binding 278110", "experimental": "as §1"}},
  "note": "Marks after values point to notes of the source that are not given here.",
  "data": [
    {"smiles": "C[C@]12CC[C@H](O)C[C@H]1CCC1C2CC[C@]2(C)[C@@H](c3c[nH]cn3)CC[C@]12O", "note": "(stereo partly drawn) [CVie 101, 3β-hydroxy-5β-10β-methyl-13β-methyl-14β-hydroxy-17β-(imidazol-4-yl)androstane]", "values": [
      {"measurement": "% increase vs Control (SERCA2a Vmax)", "setting": "SERCA2a; compound 10 nM", "value": 15, "unit": "%*"},
      {"measurement": "Vmax (SERCA2a ATPase activity)", "setting": "SERCA2a; compound 10 nM", "value": "2.737 ± 0.336 (n = 7) μmol/min/mg prot"},
      {"measurement": "% increase vs Control (SERCA2a Vmax)", "setting": "SERCA2a; compound 100 nM", "value": 19, "unit": "%*"},
      {"measurement": "Vmax (SERCA2a ATPase activity)", "setting": "SERCA2a; compound 100 nM", "value": "2.832 ± 0.198 (n = 7) μmol/min/mg prot"},
      {"measurement": "short term APD variability (STV)", "setting": "[1]; 0.5-1-2-4 Hz separately or pooled, FIG. 3", "value": "unaffected"},
      {"measurement": "diastolic membrane potential (Ediast)", "setting": "[1]; 0.5-1-2-4 Hz, FIG. 2A", "value": "did not affect"},
      {"measurement": "maximum depolarization velocity (dV/dtmax)", "setting": "[1]; FIG. 2B", "value": "did not affect"},
      {"measurement": "action potential duration (APD at 90%, 50% and 20% of repolarization) and its cycle-length dependency", "setting": "[1]; FIG. 2C", "value": "did not affect"},
      {"measurement": "time constant of APD adaptation after a step change in cycle length", "setting": "[1]; FIG. 2D", "value": "not shortened"},
      {"measurement": "inhibition at 10 µM", "setting": "[2]", "value": 36, "unit": "%"},
      {"measurement": "inhibition at 10 µM", "setting": "[3]", "value": 5, "unit": "%"},
      {"measurement": "inhibition at 10 µM", "setting": "Phosphodiesterase PDE3", "value": -16, "unit": "%"},
      {"measurement": "inhibition at 10 µM", "setting": "Adenosine A2A", "value": 0, "unit": "%"},
      {"measurement": "% inhib", "setting": "Androgen (Testosterone)", "value": 1, "unit": "%"},
      {"measurement": "inhibition at 10 µM", "setting": "Angiotensin AT2", "value": -1, "unit": "%"},
      {"measurement": "% inhib", "setting": "[4]", "value": "−8", "unit": "%"},
      {"measurement": "inhibition at 10 µM", "setting": "Muscarinic M2", "value": 7, "unit": "%"},
      {"measurement": "inhibition at 10 µM", "setting": "Muscarinic M5", "value": 21, "unit": "%"},
      {"measurement": "% inhib", "setting": "Nicotinic Acetylcholine", "value": 2, "unit": "%"},
      {"measurement": "inhibition at 10 µM", "setting": "Potassium Channel (KATP)", "value": -6, "unit": "%"},
      {"measurement": "inhibition at 10 µM", "setting": "Progesterone PR-B", "value": 10, "unit": "%"},
      {"measurement": "inhibition at 10 µM", "setting": "Ryanodine RyR3", "value": 8, "unit": "%"},
      {"measurement": "inhibition at 10 µM", "setting": "Sigma σ1", "value": 23, "unit": "%"}
    ]}
  ]
}
